Experiments:
Assay in all cases: relative viability (nuclei count vs DMSO), 5 days (fraction); higher = more cells survive
COR-L 105 = test system: COR-L 105
Procedure, shortened: (§1)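 Lung cancer cell lines in 1536-well plates got either a single drug or a fixed anchor-drug dose together with five library-drug doses (not always all listed) in √10 steps, by pin tool, on the day after seeding. Nuclei were counted after 5 days, and relative viability is the treated-to-vehicle ratio of nuclei counts. Values are medians of duplicate plates.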

COR-L23 = test system: COR-L23
Procedure, shortened: as §1

HARA = test system: HARA
Procedure, shortened: as §1

HCC-15 = test system: HCC-15
Procedure, shortened: as §1

HCC-366 = test system: HCC-366
Procedure, shortened: as §1

HCC-44 = test system: HCC-44
Procedure, shortened: as §1

HCC-827 = test system: HCC-827
Procedure, shortened: as §1

HOP-62 = test system: HOP-62
Procedure, shortened: as §1

LC-2-ad = test system: LC-2-ad
Procedure, shortened: as §1

LK-2 = test system: LK-2
Procedure, shortened: as §1

LU99A = test system: LU99A
Procedure, shortened: as §1

LXF-289 = test system: LXF-289
Procedure, shortened: as §1

NCI-H1944 = test system: NCI-H1944
Procedure, shortened: as §1

NCI-H1975 = test system: NCI-H1975
Procedure, shortened: as §1

NCI-H2023 = test system: NCI-H2023
Procedure, shortened: as §1

NCI-H2085 = test system: NCI-H2085
Procedure, shortened: as §1

NCI-H2342 = test system: NCI-H2342
Procedure, shortened: as §1

NCI-H522 = test system: NCI-H522
Procedure, shortened: as §1

NCI-H647 = test system: NCI-H647
Procedure, shortened: as §1

NCI-H838 = test system: NCI-H838
Procedure, shortened: as §1

PC-14 = test system: PC-14
Procedure, shortened: as §1

SW 900 = test system: SW 900
Procedure, shortened: as §1

Compound: C=C1C(=O)O[C@@H](CCCCCCCC)[C@@H]1C(=O)O [C-75] + Nc1ncn([C@H]2C[C@H](O)[C@@H](CO)O2)c(=O)n1 [Decitabine] (partner 2 µM)
- relative viability (COR-L 105; first compound 0.08 µM): 0.7
- relative viability (COR-L 105; first compound 0.253 µM): 0.685
- relative viability (COR-L 105; first compound 0.8 µM): 0.582
- relative viability (COR-L 105; first compound 2.53 µM): 0.477
- relative viability (COR-L 105; first compound 8 µM): 0.606
- relative viability (COR-L23; first compound 0.08 µM): 0.483
- relative viability (COR-L23; first compound 0.253 µM): 0.486
- relative viability (COR-L23; first compound 0.8 µM): 0.415
- relative viability (COR-L23; first compound 2.53 µM): 0.459
- relative viability (COR-L23; first compound 8 µM): 0.396
- relative viability (HARA; first compound 0.08 µM): 0.538
- relative viability (HARA; first compound 0.253 µM): 0.444
- relative viability (HARA; first compound 0.8 µM): 0.565
- relative viability (HARA; first compound 2.53 µM): 0.535
- relative viability (HARA; first compound 8 µM): 0.756
- relative viability (HCC-15; first compound 0.08 µM): 0.691
- relative viability (HCC-15; first compound 0.253 µM): 0.636
- relative viability (HCC-15; first compound 0.8 µM): 0.551
- relative viability (HCC-15; first compound 2.53 µM): 0.543
- relative viability (HCC-15; first compound 8 µM): 0.626
- relative viability (HCC-366; first compound 0.08 µM): 0.357
- relative viability (HCC-366; first compound 0.253 µM): 0.361
- relative viability (HCC-366; first compound 0.8 µM): 0.385
- relative viability (HCC-366; first compound 2.53 µM): 0.344
- relative viability (HCC-366; first compound 8 µM): 0.289
- relative viability (HCC-44; first compound 0.08 µM): 1.02
- relative viability (HCC-44; first compound 0.253 µM): 0.922
- relative viability (HCC-44; first compound 0.8 µM): 0.946
- relative viability (HCC-44; first compound 2.53 µM): 0.8
- relative viability (HCC-44; first compound 8 µM): 0.903
- relative viability (HCC-827; first compound 0.253 µM): 0.333
- relative viability (HCC-827; first compound 0.8 µM): 0.277
- relative viability (HCC-827; first compound 8 µM): 0.262
- relative viability (HOP-62; first compound 0.08 µM): 0.22
- relative viability (HOP-62; first compound 0.253 µM): 0.217
- relative viability (HOP-62; first compound 0.8 µM): 0.218
- relative viability (HOP-62; first compound 2.53 µM): 0.23
- relative viability (HOP-62; first compound 8 µM): 0.161
- relative viability (LC-2-ad; first compound 0.08 µM): 0.785
- relative viability (LC-2-ad; first compound 0.253 µM): 0.809
- relative viability (LC-2-ad; first compound 0.8 µM): 0.755
- relative viability (LC-2-ad; first compound 2.53 µM): 0.771
- relative viability (LC-2-ad; first compound 8 µM): 0.837
- relative viability (LK-2; first compound 0.08 µM): 0.309
- relative viability (LK-2; first compound 0.253 µM): 0.374
- relative viability (LK-2; first compound 0.8 µM): 0.306
- relative viability (LK-2; first compound 2.53 µM): 0.232
- relative viability (LK-2; first compound 8 µM): 0.271
- relative viability (LU99A; first compound 0.08 µM): 0.831
- relative viability (LU99A; first compound 0.253 µM): 0.78
- relative viability (LU99A; first compound 0.8 µM): 0.841
- relative viability (LU99A; first compound 2.53 µM): 0.83
- relative viability (LU99A; first compound 8 µM): 0.79
- relative viability (LXF-289; first compound 0.08 µM): 0.361
- relative viability (LXF-289; first compound 0.253 µM): 0.396
- relative viability (LXF-289; first compound 0.8 µM): 0.317
- relative viability (LXF-289; first compound 2.53 µM): 0.3
- relative viability (LXF-289; first compound 8 µM): 0.399
- relative viability (NCI-H1944; first compound 0.08 µM): 0.423
- relative viability (NCI-H1944; first compound 0.253 µM): 0.471
- relative viability (NCI-H1944; first compound 0.8 µM): 0.35
- relative viability (NCI-H1944; first compound 2.53 µM): 0.368
- relative viability (NCI-H1944; first compound 8 µM): 0.461
- relative viability (NCI-H1975; first compound 0.08 µM): 0.373
- relative viability (NCI-H1975; first compound 0.253 µM): 0.334
- relative viability (NCI-H1975; first compound 0.8 µM): 0.32
- relative viability (NCI-H1975; first compound 2.53 µM): 0.299
- relative viability (NCI-H1975; first compound 8 µM): 0.431
- relative viability (NCI-H2023; first compound 0.08 µM): 0.242
- relative viability (NCI-H2023; first compound 0.253 µM): 0.22
- relative viability (NCI-H2023; first compound 0.8 µM): 0.22
- relative viability (NCI-H2023; first compound 8 µM): 0.188
- relative viability (NCI-H2085; first compound 0.08 µM): 0.535
- relative viability (NCI-H2085; first compound 0.253 µM): 0.587
- relative viability (NCI-H2085; first compound 0.8 µM): 0.465
- relative viability (NCI-H2085; first compound 2.53 µM): 0.447
- relative viability (NCI-H2085; first compound 8 µM): 0.434
- relative viability (NCI-H2342; first compound 0.08 µM): 0.749
- relative viability (NCI-H2342; first compound 0.253 µM): 0.785
- relative viability (NCI-H2342; first compound 0.8 µM): 0.667
- relative viability (NCI-H2342; first compound 2.53 µM): 0.57
- relative viability (NCI-H2342; first compound 8 µM): 0.722
- relative viability (NCI-H522; first compound 0.08 µM): 0.741
- relative viability (NCI-H522; first compound 0.253 µM): 0.693
- relative viability (NCI-H522; first compound 0.8 µM): 0.763
- relative viability (NCI-H522; first compound 2.53 µM): 0.555
- relative viability (NCI-H522; first compound 8 µM): 0.599
- relative viability (NCI-H647; first compound 0.08 µM): 0.332
- relative viability (NCI-H647; first compound 0.253 µM): 0.422
- relative viability (NCI-H647; first compound 0.8 µM): 0.365
- relative viability (NCI-H647; first compound 2.53 µM): 0.306
- relative viability (NCI-H647; first compound 8 µM): 0.234
- relative viability (NCI-H838; first compound 0.08 µM): 0.445
- relative viability (NCI-H838; first compound 0.253 µM): 0.45
- relative viability (NCI-H838; first compound 0.8 µM): 0.434
- relative viability (NCI-H838; first compound 2.53 µM): 0.369
- relative viability (NCI-H838; first compound 8 µM): 0.372
- relative viability (PC-14; first compound 0.08 µM): 0.226
- relative viability (PC-14; first compound 0.253 µM): 0.233
- relative viability (PC-14; first compound 0.8 µM): 0.216
- relative viability (PC-14; first compound 2.53 µM): 0.191
- relative viability (PC-14; first compound 8 µM): 0.168
- relative viability (SW 900; first compound 0.08 µM): 0.413
- relative viability (SW 900; first compound 0.253 µM): 0.489
- relative viability (SW 900; first compound 0.8 µM): 0.46
- relative viability (SW 900; first compound 2.53 µM): 0.401
- relative viability (SW 900; first compound 8 µM): 0.403

Source: the supplement of paper PMC10307832
